Experimental data published in patent publication EP4603105A1, “PHARMACEUTICAL COMPOSITION CONTAINING CYCLIC COMPOUND HAVING SELECTIVE KRAS INHIBITORY EFFECT AGAINST HRAS AND NRAS” (CHUGAI SEIYAKU KABUSHIKI KAISHA, priority 2022, dated 2024).
Where a SMILES comes first, the peptide text is derived from it. Bridges are numbered along the chain shown (N, C = ends). [ ]: non-standard residue; d: D form. The star is where a group is joined. hPhe(3-Cl-4-CF3) = N[C@@H](CCc1ccc(C(F)(F)F)c(Cl)c1)C(=O)O; NPrPhe(4-CF3) = CCCN[C@@H](Cc1ccc(C(F)(F)F)cc1)C(=O)O; NMeGly(cPent) = CN[C@H](C(=O)O)C1CCCC1; Pro(4,4-F2) = O=C(O)[C@@H]1CC(F)(F)CN1; Hyp = O=C(O)[C@@H]1C[C@@H](O)CN1; NMeD = CN[C@@H](CC(=O)O)C(=O)O; NMeL = CN[C@@H](CC(C)C)C(=O)O; N(Me)CH2CH2OMe = COCCN(C)*; Morpholide = C1CN(*)CCO1; Ac5c = NC1(C(=O)O)CCCC1; Aze = O=C(O)[C@@H]1CCN1; Ac4c = NC1(C(=O)O)CCC1; NEtG = CCNCC(=O)O; Sar = CNCC(=O)O

Assays:
[1] = target: GDP-bound NRAS wild-type protein (Homo sapiens, UniProt P01111); assay: Binding to NRAS by surface plasmon resonance (SPR), KD and KD ratio to KRAS; settings: ratio of the KD value with respect to GDP-bound NRAS wild-type protein to the KD value with respect to KRAS
How it was run: (§1)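 Compound binding is evaluated by SPR single-cycle kinetics, with concentrations added intermittently from low to high for 75 s each. Target surfaces carry GDP-loaded biotinylated Avi-RAS at about 100–300 RU, regenerated after each cycle; temperature 30°C. A 1:1 binding model gives KD.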

HRAS wild-type protein = HRAS wild-type protein (Homo sapiens, UniProt P01112); assay: Binding to HRAS by surface plasmon resonance (SPR), KD and KD ratio to KRAS; settings: ratio of the KD value with respect to HRAS wild-type protein to the KD value with respect to KRAS
How it was run: as §1

[2] = system: human lung cancer strain NCI-H441; format: cell-based
How it was run: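 Proliferation was scored by […] measured after the reagent was added to cultures kept at 37°C in 5% carbon dioxide.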

Chain of GDP-bound NRAS wild-type protein (P01111 whole entry): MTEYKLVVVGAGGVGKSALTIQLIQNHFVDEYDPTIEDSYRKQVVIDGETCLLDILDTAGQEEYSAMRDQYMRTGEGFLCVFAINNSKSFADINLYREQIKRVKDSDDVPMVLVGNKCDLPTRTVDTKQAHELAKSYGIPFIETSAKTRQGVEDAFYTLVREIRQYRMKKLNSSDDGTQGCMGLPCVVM
Chain of HRAS wild-type protein (P01112 whole entry): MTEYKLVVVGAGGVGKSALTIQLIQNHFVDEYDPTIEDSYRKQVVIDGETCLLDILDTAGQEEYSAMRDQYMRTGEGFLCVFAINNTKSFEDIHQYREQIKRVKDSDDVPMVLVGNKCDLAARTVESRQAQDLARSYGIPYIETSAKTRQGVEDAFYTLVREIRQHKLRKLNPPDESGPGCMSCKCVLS

SMILES | NRAS /KRAS [1] | HRAS /KRAS (HRAS wild-type protein) | IC50 [2] [nM]
CCCN1C(=O)[C@@H]2CCN2C(=O)CN(C)C(=O)[C@H]([C@@H](C)CC)NC(=O)[C@H](CC(C)C)N(C)C(=O)C[C@@H](C(=O)N(C)C)NC(=O)[C@H](C2CCCC2)N(C)C(=O)C2(CCCC2)NC(=O)[C@@H]2CC(F)(F)CN2C(=O)[C@H](CCc2ccc(C(F)(F)F)c(Cl)c2)NC(=O)CN(C)C(=O)[C@@H]1Cc1ccc(C(F)(F)F)cc1 [PP0387] ([NMeL]I[Sar][Aze][NPrPhe(4-CF3)][Sar][hPhe(3-Cl-4-CF3)][Pro(4,4-F2)][Ac5c][NMeGly(cPent)]D-NMe2; lactam N-11) | C (A compound having a KD ratio of 0.1 or more and less than 3 is denoted as C) | B (a compound having 3 or more and less than 10 is denoted as B) | 20
CCCN1C(=O)[C@@H]2CCN2C(=O)CN(C)C(=O)[C@H]([C@@H](C)CC)NC(=O)[C@H](CC(C)C)N(C)C(=O)C[C@@H](C(=O)N(C)C)NC(=O)[C@H](C2CCCC2)N(C)C(=O)C2(CCC2)NC(=O)[C@@H]2CC(F)(F)CN2C(=O)[C@H](CCc2ccc(C(F)(F)F)c(Cl)c2)NC(=O)CN(C)C(=O)[C@@H]1Cc1ccc(C(F)(F)F)cc1 [PP0388] ([NMeL]I[Sar][Aze][NPrPhe(4-CF3)][Sar][hPhe(3-Cl-4-CF3)][Pro(4,4-F2)][Ac4c][NMeGly(cPent)]D-NMe2; lactam N-11) | C (A compound having a KD ratio of 0.1 or more and less than 3 is denoted as C) | B (a compound having 3 or more and less than 10 is denoted as B) | 11.6
CCCN1C(=O)[C@@H]2CCN2C(=O)CN(C)C(=O)[C@H]([C@@H](C)CC)NC(=O)[C@H](CC(C)C)N(C)C(=O)C[C@@H](C(=O)N(C)C)NC(=O)[C@H](C2CCCC2)N(C)C(=O)C2(CCCC2)NC(=O)[C@@H]2C[C@@H](OCC)CN2C(=O)[C@H](CCc2ccc(C(F)(F)F)c(Cl)c2)NC(=O)CN(C)C(=O)[C@@H]1Cc1ccc(C(F)(F)F)cc1 [PP0389] ([NMeL]I[Sar][Aze][NPrPhe(4-CF3)][Sar][hPhe(3-Cl-4-CF3)][Hyp](Et)[Ac5c][NMeGly(cPent)]D-NMe2; lactam N-11) | C (A compound having a KD ratio of 0.1 or more and less than 3 is denoted as C) | B (a compound having 3 or more and less than 10 is denoted as B) | 3
CCCN1C(=O)[C@@H]2CCN2C(=O)CN(C)C(=O)[C@H]([C@@H](C)CC)NC(=O)[C@H](CC(C)C)N(C)C(=O)C[C@@H](C(=O)N(C)C)NC(=O)[C@H](C2CCCC2)N(C)C(=O)C2(CCC2)NC(=O)[C@@H]2C[C@@H](OCC)CN2C(=O)[C@H](CCc2ccc(C(F)(F)F)c(Cl)c2)NC(=O)CN(C)C(=O)[C@@H]1Cc1ccc(C(F)(F)F)cc1 [PP0390] ([NMeL]I[Sar][Aze][NPrPhe(4-CF3)][Sar][hPhe(3-Cl-4-CF3)][Hyp](Et)[Ac4c][NMeGly(cPent)]D-NMe2; lactam N-11) | C (A compound having a KD ratio of 0.1 or more and less than 3 is denoted as C) | B (a compound having 3 or more and less than 10 is denoted as B) | 7.6
CCCN1C(=O)CN(C)C(=O)CN(C)C(=O)[C@H]([C@@H](C)CC)NC(=O)[C@H](CC(C)C)N(C)C(=O)C[C@@H](C(=O)N(C)CCOC)N(C)C(=O)[C@H](C2CCCC2)N(C)C(=O)C2(CCCC2)NC(=O)[C@@H]2CCCN2C(=O)[C@H](CCc2ccc(C(F)(F)F)c(Cl)c2)NC(=O)CN(C)C(=O)[C@@H]1Cc1ccc(C(F)(F)F)cc1 [PP0391] ([NMeL]I[Sar][Sar][NPrPhe(4-CF3)][Sar][hPhe(3-Cl-4-CF3)]P[Ac5c][NMeGly(cPent)][NMeD]-{N(Me)CH2CH2OMe}; lactam N-11) | B (a compound having 3 or more and less than 10 is denoted as B) | B (a compound having 3 or more and less than 10 is denoted as B) | 1.1
CCCN1C(=O)CN(C)C(=O)CN(C)C(=O)[C@H]([C@@H](C)CC)NC(=O)[C@H](CC(C)C)N(C)C(=O)C[C@@H](C(=O)N2CCOCC2)N(C)C(=O)[C@H](C2CCCC2)N(C)C(=O)C2(CCC2)NC(=O)[C@@H]2C[C@@H](OCC)CN2C(=O)[C@H](CCc2ccc(C(F)(F)F)c(Cl)c2)NC(=O)CN(C)C(=O)[C@@H]1Cc1ccc(C(F)(F)F)cc1 [PP0392] ([NMeL]I[Sar][Sar][NPrPhe(4-CF3)][Sar][hPhe(3-Cl-4-CF3)][Hyp](Et)[Ac4c][NMeGly(cPent)][NMeD]-Morpholide; lactam N-11) | B (a compound having 3 or more and less than 10 is denoted as B) | C (A compound having a KD ratio of 0.1 or more and less than 3 is denoted as C) | 0.9
CCCN1C(=O)CN(C)C(=O)CNC(=O)[C@H]([C@@H](C)CC)NC(=O)[C@H](CC(C)C)N(C)C(=O)C[C@@H](C(=O)N2CCOCC2)N(C)C(=O)[C@H](C2CCCC2)N(C)C(=O)C2(CCC2)NC(=O)[C@@H]2CCCN2C(=O)[C@H](CCc2ccc(C(F)(F)F)c(Cl)c2)NC(=O)CN(C)C(=O)[C@@H]1Cc1ccc(C(F)(F)F)cc1 [PP0393] ([NMeL]IG[Sar][NPrPhe(4-CF3)][Sar][hPhe(3-Cl-4-CF3)]P[Ac4c][NMeGly(cPent)][NMeD]-Morpholide; lactam N-11) | B (a compound having 3 or more and less than 10 is denoted as B) | B (a compound having 3 or more and less than 10 is denoted as B) | 2.7
CCCN1C(=O)CN(C)C(=O)CNC(=O)[C@H]([C@@H](C)CC)NC(=O)[C@H](CC(C)C)N(C)C(=O)C[C@@H](C(=O)N2CCOCC2)N(C)C(=O)[C@H](C2CCCC2)N(C)C(=O)C2(CCCC2)NC(=O)[C@@H]2CC(F)(F)CN2C(=O)[C@H](CCc2ccc(C(F)(F)F)c(Cl)c2)NC(=O)CN(C)C(=O)[C@@H]1Cc1ccc(C(F)(F)F)cc1 [PP0394] ([NMeL]IG[Sar][NPrPhe(4-CF3)][Sar][hPhe(3-Cl-4-CF3)][Pro(4,4-F2)][Ac5c][NMeGly(cPent)][NMeD]-Morpholide; lactam N-11) | C (A compound having a KD ratio of 0.1 or more and less than 3 is denoted as C) | C (A compound having a KD ratio of 0.1 or more and less than 3 is denoted as C) | 2.6
CCCN1C(=O)CN(C)C(=O)CNC(=O)[C@H]([C@@H](C)CC)NC(=O)[C@H](CC(C)C)N(C)C(=O)C[C@@H](C(=O)N2CCOCC2)N(C)C(=O)[C@H](C2CCCC2)N(C)C(=O)C2(CCC2)NC(=O)[C@@H]2CC(F)(F)CN2C(=O)[C@H](CCc2ccc(C(F)(F)F)c(Cl)c2)NC(=O)CN(C)C(=O)[C@@H]1Cc1ccc(C(F)(F)F)cc1 [PP0395] ([NMeL]IG[Sar][NPrPhe(4-CF3)][Sar][hPhe(3-Cl-4-CF3)][Pro(4,4-F2)][Ac4c][NMeGly(cPent)][NMeD]-Morpholide; lactam N-11) | B (a compound having 3 or more and less than 10 is denoted as B) | C (A compound having a KD ratio of 0.1 or more and less than 3 is denoted as C) | 0.8
CCCN1C(=O)CN(C)C(=O)CNC(=O)[C@H]([C@@H](C)CC)NC(=O)[C@H](CC(C)C)N(C)C(=O)C[C@@H](C(=O)N2CCOCC2)N(C)C(=O)[C@H](C2CCCC2)N(C)C(=O)C2(CCCC2)NC(=O)[C@@H]2C[C@@H](OCC)CN2C(=O)[C@H](CCc2ccc(C(F)(F)F)c(Cl)c2)NC(=O)CN(C)C(=O)[C@@H]1Cc1ccc(C(F)(F)F)cc1 [PP0396] ([NMeL]IG[Sar][NPrPhe(4-CF3)][Sar][hPhe(3-Cl-4-CF3)][Hyp](Et)[Ac5c][NMeGly(cPent)][NMeD]-Morpholide; lactam N-11) | B (a compound having 3 or more and less than 10 is denoted as B) | C (A compound having a KD ratio of 0.1 or more and less than 3 is denoted as C) | 0.9
CCCN1C(=O)CN(C)C(=O)CNC(=O)[C@H]([C@@H](C)CC)NC(=O)[C@H](CC(C)C)N(C)C(=O)C[C@@H](C(=O)N2CCOCC2)N(C)C(=O)[C@H](C2CCCC2)N(C)C(=O)C2(CCC2)NC(=O)[C@@H]2C[C@@H](OCC)CN2C(=O)[C@H](CCc2ccc(C(F)(F)F)c(Cl)c2)NC(=O)CN(C)C(=O)[C@@H]1Cc1ccc(C(F)(F)F)cc1 [PP0397] ([NMeL]IG[Sar][NPrPhe(4-CF3)][Sar][hPhe(3-Cl-4-CF3)][Hyp](Et)[Ac4c][NMeGly(cPent)][NMeD]-Morpholide; lactam N-11) | C (A compound having a KD ratio of 0.1 or more and less than 3 is denoted as C) | C (A compound having a KD ratio of 0.1 or more and less than 3 is denoted as C) | 0.7
CCCN1C(=O)CN(C)C(=O)CN(CC)C(=O)[C@H]([C@@H](C)CC)NC(=O)[C@H](CC(C)C)N(C)C(=O)C[C@@H](C(=O)N2CCOCC2)N(C)C(=O)[C@H](C2CCCC2)N(C)C(=O)C2(CCCC2)NC(=O)[C@@H]2CC(F)(F)CN2C(=O)[C@H](CCc2ccc(C(F)(F)F)c(Cl)c2)NC(=O)CN(C)C(=O)[C@@H]1Cc1ccc(C(F)(F)F)cc1 [PP0399] ([NMeL]I[NEtG][Sar][NPrPhe(4-CF3)][Sar][hPhe(3-Cl-4-CF3)][Pro(4,4-F2)][Ac5c][NMeGly(cPent)][NMeD]-Morpholide; lactam N-11) | B (a compound having 3 or more and less than 10 is denoted as B) | C (A compound having a KD ratio of 0.1 or more and less than 3 is denoted as C) | 6.3
